Legend:
Assay type in all cases: in vivo
[1] = system: bulrush; assay: Test Example 1: herbicidal effects in preemergence treatment under submerged conditions; settings: dose 2.52 g/a
In short: (§1)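 Score 0–5 by mortality (5: ≥90%; 0: <5%), read 3 weeks post-application. Paddy-type cups: alluvial soil under 4 cm water, weeds seeded plus transplanted 2.5-leaf rice; diluted EC dosed onto water surface same day as sowing, g/a basis; greenhouse 25 to 30° C.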

[2] = system: ducksalad; assay: as above; settings: dose 2.52 g/a
In short: as §1

[3] = system: barnyardgrass; assay: as above; settings: dose 2.52 g/a
In short: as §1

[4] = system: posumbu knotweed; assay: Test Example 3: herbicidal effects in soil treatment; settings: dose 3.2 g/a
In short: (§2)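 Seeds were sown in sterilized diluvial soil and covered with about 1.5 cm of soil. Compounds, formulated as emulsifiable concentrates and diluted with water, were sprayed evenly over the soil surface at set doses in g/a. Herbicidal effect was scored on a rating scale three weeks later.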

[5] = system: common chickweed; assay: as above; settings: dose 3.2 g/a
In short: as §2

[6] = system: velvetleaf; assay: as above; settings: dose 3.2 g/a
In short: as §2

[7] = system: common ragweed; assay: as above; settings: dose 3.2 g/a
In short: as §2

[8] = system: common lambsquater; assay: as above; settings: dose 3.2 g/a
In short: as §2

[9] = system: redroot pigweed; assay: as above; settings: dose 3.2 g/a
In short: as §2

[10] = system: beadstraw; assay: as above; settings: dose 3.2 g/a
In short: as §2

[11] = system: large crabgrass; assay: as above; settings: dose 3.2 g/a
In short: as §2

[12] = system: Italian ryegrass; assay: as above; settings: dose 3.2 g/a
In short: as §2

[13] = system: barnyardgrass; assay: as above; settings: dose 3.2 g/a
In short: as §2

[14] = system: water foxtail; assay: as above; settings: dose 3.2 g/a
In short: as §2

[15] = system: giant foxtail; assay: as above; settings: dose 3.2 g/a
In short: as §2

[16] = system: transplanted rice; assay: Test Example 1: preemergence treatment under submerged conditions, effect on crop; settings: dose 2.52 g/a
In short: as §1

[17] = system: posumbu knotweed; assay: Test Example 4: herbicidal effect in foliage treatment; settings: dose 3.2 g/a, three weeks after application
In short: (§3)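 Visual herbicidal scores on a graded scale were recorded three weeks after foliar application. Compounds went on as diluted emulsifiable concentrates at predetermined g/a to plants grown 14 days in a 25 to 30° C greenhouse.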

[18] = system: common chickweed; assay: as above; settings: dose 3.2 g/a, three weeks after application
In short: as §3

[19] = system: velvetleaf; assay: as above; settings: dose 3.2 g/a, three weeks after application
In short: as §3

[20] = system: common ragweed; assay: as above; settings: dose 3.2 g/a, three weeks after application
In short: as §3

[21] = system: common lambsquater; assay: as above; settings: dose 3.2 g/a, three weeks after application
In short: as §3

[22] = system: redroot pigweed; assay: as above; settings: dose 3.2 g/a, three weeks after application
In short: as §3

[23] = system: beadstraw; assay: as above; settings: dose 3.2 g/a, three weeks after application
In short: as §3

[24] = system: large crabgrass; assay: as above; settings: dose 3.2 g/a, three weeks after application
In short: as §3

[25] = system: Italian ryegrass; assay: as above; settings: dose 3.2 g/a, three weeks after application
In short: as §3

[26] = system: barnyardgrass; assay: as above; settings: dose 3.2 g/a, three weeks after application
In short: as §3

[27] = system: water foxtail; assay: as above; settings: dose 3.2 g/a, three weeks after application
In short: as §3

[28] = system: giant foxtail; assay: as above; settings: dose 3.2 g/a, three weeks after application
In short: as §3

[29] = system: bulrush; assay: Test Example 2: herbicidal effects during the vegetation period under submerged conditions; settings: treatment during the vegetation period under submerged conditions; dose 2.52 g/a
In short: (§4)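 Barnyardgrass, bulrush and ducksalad were co-sown in alluvial soil flooded to 4 cm and grown in a greenhouse at 25 to 30° C. At the 1- or 2-leaf stage, water-diluted emulsifiable concentrates went onto the water surface at set doses (g/a). Herbicidal effect was scored three weeks later on a graded scale.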

[30] = system: ducksalad; assay: as above; settings: treatment during the vegetation period under submerged conditions; dose 2.52 g/a
In short: as §4

[31] = system: barnyardgrass; assay: as above; settings: treatment during the vegetation period under submerged conditions; dose 2.52 g/a
In short: as §4

Row | SMILES | B: bulrush, herbicidal effect (evaluation scale 0-5) [1] | C: ducksalad, herbicidal effect (evaluation scale 0-5) [2] | A: barnyardgrass, herbicidal effect (evaluation scale 0-5) [3] | M: posumbu knotweed, herbicidal effect (evaluation scale 0-5) [4] | N: common chickweed, herbicidal effect (evaluation scale 0-5) [5] | I: velvetleaf, herbicidal effect (evaluation scale 0-5) [6] | J: common ragweed, herbicidal effect (evaluation scale 0-5) [7] | L: common lambsquater, herbicidal effect (evaluation scale 0-5) [8] | K: redroot pigweed, herbicidal effect (evaluation scale 0-5) [9] | O: beadstraw, herbicidal effect (evaluation scale 0-5) [10] | D: large crabgrass, herbicidal effect (evaluation scale 0-5) [11] | H: Italian ryegrass, herbicidal effect (evaluation scale 0-5) [12] | A: barnyardgrass, herbicidal effect (evaluation scale 0-5) [13] | G: water foxtail, herbicidal effect (evaluation scale 0-5) [14] | E: giant foxtail, herbicidal effect (evaluation scale 0-5) [15] | a: transplanted rice, effect on crop (evaluation scale 0-5) [16] | M: posumbu knotweed, herbicidal effect [17] | N: common chickweed, herbicidal effect [18] | I: velvetleaf, herbicidal effect [19] | J: common ragweed, herbicidal effect [20] | further results
1 | Cn1nc(Cl)cc1C1(C)CC(=O)N(Cc2ccccc2NS(=O)(=O)C(F)(F)F)CO1 (centres unmarked) [II-59] | 5 (mortality of 90% or above (nearly complete death)) | 5 (mortality of 90% or above (nearly complete death)) | 5 (mortality of 90% or above (nearly complete death)) | 1 (mortality of at least 5% and less than 20%) | 4 (mortality of at least 70% and less than 90%) | 1 (mortality of at least 5% and less than 20%) | 3 (mortality of at least 40% and less than 70%) | 0 (mortality of less than 5% (almost ineffective)) | 3 (mortality of at least 40% and less than 70%) | 1 (mortality of at least 5% and less than 20%) | 1 (mortality of at least 5% and less than 20%) | 5 (mortality of 90% or above (nearly complete death)) | 4 (mortality of at least 70% and less than 90%) | 0 (mortality of less than 5% (almost ineffective)) | 4 (mortality of at least 70% and less than 90%) | 0 (mortality of less than 5% (almost ineffective)) | 1 (mortality of at least 5% and less than 20%) | 4 (mortality of at least 70% and less than 90%) | 2 (mortality of at least 20% and less than 40%) | 4 (mortality of at least 70% and less than 90%) | L: common lambsquater, herbicidal effect [21]: 1 (mortality of at least 5% and less than 20%); K: redroot pigweed, herbicidal effect [22]: 0 (mortality of less than 5% (almost ineffective)); O: beadstraw, herbicidal effect [23]: 5 (mortality of 90% or above (nearly complete death)); D: large crabgrass, herbicidal effect [24]: 3 (mortality of at least 40% and less than 70%); H: Italian ryegrass, herbicidal effect [25]: 1 (mortality of at least 5% and less than 20%); A: barnyardgrass, herbicidal effect [26]: 5 (mortality of 90% or above (nearly complete death)); G: water foxtail, herbicidal effect [27]: 5 (mortality of 90% or above (nearly complete death)); E: giant foxtail, herbicidal effect [28]: 1 (mortality of at least 5% and less than 20%); B: bulrush, herbicidal effect (evaluation scale 0-5) [29]: 5 (mortality of 90% or above (nearly complete death)); C: ducksalad, herbicidal effect (evaluation scale 0-5) [30]: 5 (mortality of 90% or above (nearly complete death)); A: barnyardgrass, herbicidal effect (evaluation scale 0-5) [31]: 5 (mortality of 90% or above (nearly complete death))
2 | CCOC(=O)N(c1ccccc1CN1COC(C)(c2cc(Cl)nn2C)CC1=O)S(=O)(=O)C(F)(F)F (centres unmarked) [II-60] | 5 (mortality of 90% or above (nearly complete death)) | 5 (mortality of 90% or above (nearly complete death)) | 5 (mortality of 90% or above (nearly complete death)) | 3 (mortality of at least 40% and less than 70%) | 4 (mortality of at least 70% and less than 90%) | 4 (mortality of at least 70% and less than 90%) | 1 (mortality of at least 5% and less than 20%) | 1 (mortality of at least 5% and less than 20%) | 4 (mortality of at least 70% and less than 90%) | 0 (mortality of less than 5% (almost ineffective)) | 4 (mortality of at least 70% and less than 90%) | 3 (mortality of at least 40% and less than 70%) | 5 (mortality of 90% or above (nearly complete death)) | 5 (mortality of 90% or above (nearly complete death)) | 5 (mortality of 90% or above (nearly complete death)) | 0 (mortality of less than 5% (almost ineffective)) | 2 (mortality of at least 20% and less than 40%) | 4 (mortality of at least 70% and less than 90%) | 3 (mortality of at least 40% and less than 70%) | 3 (mortality of at least 40% and less than 70%) | L: common lambsquater, herbicidal effect [21]: 2 (mortality of at least 20% and less than 40%); K: redroot pigweed, herbicidal effect [22]: 0 (mortality of less than 5% (almost ineffective)); O: beadstraw, herbicidal effect [23]: 4 (mortality of at least 70% and less than 90%); D: large crabgrass, herbicidal effect [24]: 3 (mortality of at least 40% and less than 70%); H: Italian ryegrass, herbicidal effect [25]: 3 (mortality of at least 40% and less than 70%); A: barnyardgrass, herbicidal effect [26]: 4 (mortality of at least 70% and less than 90%); G: water foxtail, herbicidal effect [27]: 5 (mortality of 90% or above (nearly complete death)); E: giant foxtail, herbicidal effect [28]: 3 (mortality of at least 40% and less than 70%); B: bulrush, herbicidal effect (evaluation scale 0-5) [29]: 5 (mortality of 90% or above (nearly complete death)); C: ducksalad, herbicidal effect (evaluation scale 0-5) [30]: 5 (mortality of 90% or above (nearly complete death)); A: barnyardgrass, herbicidal effect (evaluation scale 0-5) [31]: 5 (mortality of 90% or above (nearly complete death))
